Test results published in patent publication US6861235B1, “Method for controlling target microorganism” (priority 1998, dated 2005).
Entries after “also recorded” stand apart in the source; their conditions may differ.

Tests used:
NKR strain [1] = format: cell-based, Burkholderia sp. N16-1 strain; settings: Example 3; SB soil pH 7.0; sucrose solution with M9 medium added on day 13 after inoculation
NKR strain [2] = format: cell-based, Burkholderia sp. N16-1 strain; settings: Biolog GN plate; compounds in parentheses showed slight color development
[3] = test system: total cell count in the soil; test: Total cell count in soil inoculated with the NKR strain (DNB agar medium); format: cell-based; settings: Example 3; SB soil pH 7.0; sucrose solution with M9 medium (N, P and C source) added on day 13

## OC[C@H]1O[C@@](CO)(O[C@H]2O[C@H](CO)[C@@H](O)[C@H](O)[C@H]2O)[C@@H](O)[C@@H]1O [sucrose]
NKR strain [1]
  cell count of the NKR strain in the soil: transiently increased but then starts to decline; also recorded: after a transient increase, decreased slightly
NKR strain [2]
  assimilation by the NKR strain (color development of an oxidation-reduction indicator): does not assimilate; also recorded: no color development
[3]
  total cell counts in the soil: increases in the total cell counts were observed
